According to patent US9540366B2, “Ring-fused heterocyclic compound” (Kyowa Hakko Kirin Co., Ltd., priority 2012, dated 2017):
Like-named read-outs stand apart in the source and are kept apart here.

Molecular target: T1, human Cav3.2 T-type Ca2+ channel (Homo sapiens, UniProt O95180)
T1 construct: expressed in transfected cells; host or cells: KJMGER8 cells (Namalwa cell-derived cell line)
Experiment: Inhibitory effect for intracellular calcium response via Cav3.2 T-type Ca2+ channels (FLIPR Calcium 3 Assay Kit)
Format: cell-based

[1] = human Cav3.2-expressing KJMGER8 cells (Namalwa-derived), calcium response induced by 5 mmol/L CaCl2, 3 μmol/L mibefradil as reference, read-out: IC50 for the human Cav3.2 T-type Ca2+ current

T1 sequence (O95180 whole entry): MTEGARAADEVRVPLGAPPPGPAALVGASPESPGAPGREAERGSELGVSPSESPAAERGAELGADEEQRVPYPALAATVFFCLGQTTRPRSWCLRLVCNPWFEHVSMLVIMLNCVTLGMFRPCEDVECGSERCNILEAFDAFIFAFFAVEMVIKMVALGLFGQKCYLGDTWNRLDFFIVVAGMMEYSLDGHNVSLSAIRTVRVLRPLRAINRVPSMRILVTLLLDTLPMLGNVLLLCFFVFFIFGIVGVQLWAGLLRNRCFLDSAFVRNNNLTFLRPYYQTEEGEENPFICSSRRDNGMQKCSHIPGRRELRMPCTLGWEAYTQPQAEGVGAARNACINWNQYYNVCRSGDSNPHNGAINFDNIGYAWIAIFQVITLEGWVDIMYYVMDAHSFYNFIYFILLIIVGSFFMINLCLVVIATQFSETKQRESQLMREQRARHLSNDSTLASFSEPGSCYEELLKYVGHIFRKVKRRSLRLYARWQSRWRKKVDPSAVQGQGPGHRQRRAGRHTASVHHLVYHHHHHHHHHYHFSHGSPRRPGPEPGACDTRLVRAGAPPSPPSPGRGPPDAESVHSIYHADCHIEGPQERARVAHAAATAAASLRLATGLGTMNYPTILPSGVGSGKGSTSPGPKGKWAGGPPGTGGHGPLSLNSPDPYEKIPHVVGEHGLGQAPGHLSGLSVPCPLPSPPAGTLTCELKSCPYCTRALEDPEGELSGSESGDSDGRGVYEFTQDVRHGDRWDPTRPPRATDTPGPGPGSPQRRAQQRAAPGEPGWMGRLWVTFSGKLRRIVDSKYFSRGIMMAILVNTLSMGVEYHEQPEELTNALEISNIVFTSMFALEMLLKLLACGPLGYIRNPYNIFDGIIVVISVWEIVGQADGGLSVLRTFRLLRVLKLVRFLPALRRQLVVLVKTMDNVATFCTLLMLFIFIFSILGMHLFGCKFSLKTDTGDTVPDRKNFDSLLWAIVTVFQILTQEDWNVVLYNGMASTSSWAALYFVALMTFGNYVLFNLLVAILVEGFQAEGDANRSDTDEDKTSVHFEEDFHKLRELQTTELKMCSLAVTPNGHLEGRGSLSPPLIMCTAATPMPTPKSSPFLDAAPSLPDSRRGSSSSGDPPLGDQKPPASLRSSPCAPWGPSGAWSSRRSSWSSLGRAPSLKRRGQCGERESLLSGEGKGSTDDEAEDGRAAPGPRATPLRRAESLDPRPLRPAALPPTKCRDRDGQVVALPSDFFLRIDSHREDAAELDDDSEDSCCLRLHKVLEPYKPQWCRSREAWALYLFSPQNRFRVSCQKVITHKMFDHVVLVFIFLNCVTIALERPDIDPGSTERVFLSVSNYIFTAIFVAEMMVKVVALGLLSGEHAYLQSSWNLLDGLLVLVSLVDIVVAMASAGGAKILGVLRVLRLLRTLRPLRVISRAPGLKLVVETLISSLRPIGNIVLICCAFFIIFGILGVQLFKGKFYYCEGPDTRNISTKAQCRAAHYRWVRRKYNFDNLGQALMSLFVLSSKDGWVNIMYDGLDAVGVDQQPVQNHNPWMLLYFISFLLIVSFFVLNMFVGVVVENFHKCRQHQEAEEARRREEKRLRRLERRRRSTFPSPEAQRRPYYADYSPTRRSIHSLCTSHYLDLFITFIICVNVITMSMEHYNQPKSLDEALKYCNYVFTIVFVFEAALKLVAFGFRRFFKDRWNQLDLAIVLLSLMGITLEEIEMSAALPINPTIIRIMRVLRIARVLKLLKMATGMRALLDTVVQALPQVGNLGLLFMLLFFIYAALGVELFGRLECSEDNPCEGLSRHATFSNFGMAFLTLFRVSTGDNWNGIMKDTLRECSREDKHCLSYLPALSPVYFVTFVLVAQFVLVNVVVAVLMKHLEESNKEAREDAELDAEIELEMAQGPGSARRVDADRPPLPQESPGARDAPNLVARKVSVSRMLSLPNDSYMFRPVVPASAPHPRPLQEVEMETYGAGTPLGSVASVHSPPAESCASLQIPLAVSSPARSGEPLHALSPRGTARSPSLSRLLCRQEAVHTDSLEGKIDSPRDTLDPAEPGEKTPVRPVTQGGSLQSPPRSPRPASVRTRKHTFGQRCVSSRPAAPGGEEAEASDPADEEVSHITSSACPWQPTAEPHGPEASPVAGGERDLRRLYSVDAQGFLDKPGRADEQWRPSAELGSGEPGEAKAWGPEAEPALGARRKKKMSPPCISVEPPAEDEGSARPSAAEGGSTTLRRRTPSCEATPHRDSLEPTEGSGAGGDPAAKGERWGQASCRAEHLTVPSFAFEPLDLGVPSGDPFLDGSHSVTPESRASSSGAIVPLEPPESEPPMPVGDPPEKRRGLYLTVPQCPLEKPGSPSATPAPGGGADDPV

Structure (SMILES)	IC50	IC50 [1]
CC(F)(F)c1nc2cc(C(=O)NC3CCOCC3)cc(C#N)n2c1CC1CCC(F)(F)CC1 [Compound 159, 5-Cyano-3-[(4,4-difluorocyclohexyl)methyl]-2-(1,1-difluoroethyl)-N-(tetrahydro-2H-pyran-4-yl)imidazo[1,2-a]pyridine-7-carboxamide]	≤ 100 nM	–
CC(C)(C)C(=O)CNC(=O)c1cc(C#N)n2c(CC3CCC(F)(F)CC3)c(C(F)(F)F)nc2c1 [Compound 160, 5-Cyano-3-[(4,4-difluorocyclohexyl)methyl]-N-(3,3-dimethyl-2-oxobutyl)-2-(trifluoromethyl)imidazo[1,2-a]pyridine-7-carboxamide]	≤ 100 nM	–
CCOC(=O)C1(NC(=O)c2cc(C#N)n3c(CC4CCC(F)(F)CC4)c(C(F)(F)F)nc3c2)CC1 [Compound 161, Ethyl 1-{5-cyano-3-[(4,4-difluorocyclohexyl)methyl]-2-(trifluoromethyl)imidazo[1,2-a]pyridine-7-carboxamide}cyclopropanecarboxylate]	≤ 100 nM	–
CC(C)(CO)NC(=O)c1cc(C#N)n2c(CC3CCC(F)(F)CC3)c(C(F)(F)F)nc2c1 [Compound 162]	≤ 100 nM	–
CC(C)(Oc1ccccc1)c1c(C(F)(F)F)nc2cc(C(=O)Nc3ccccc3)ccn12 [Compound 163, 3-(2-Phenoxypropan-2-yl)-N-phenyl-2-(trifluoromethyl)imidazo[1,2-a]pyridine-7-carboxamide]	–	≤ 100 nM
Cc1c(C(=O)NC2CCOCC2)cc(C)n2c(CC3CCC(F)(F)CC3)c(C(F)(F)F)nc12 [Compound 166, 3-[(4,4-Difluorocyclohexyl)methyl]-5,8-dimethyl-N-(tetrahydro-2H-pyran-4-yl)-2-(trifluoromethyl)imidazo[1,2-a]pyridine-7-carboxamide]	≤ 100 nM	–
Cc1c(C(=O)NC2CCOCC2)cc2nc(C(F)(F)F)c(CC3CCC(F)(F)CC3)n2c1C [Compound 167, 3-[(4,4-Difluorocyclohexyl)methyl]-5,6-dimethyl-N-(tetrahydro-2H-pyran-4-yl)-2-(trifluoromethyl)imidazo[1,2-a]pyridine-7-carboxamide]	≤ 100 nM	–
CC(C)c1nc2cc(C(=O)NC3CC(F)(F)C3)cc(C#N)n2c1CC1CCC(F)(F)CC1 [Compound 170, 5-Cyano-N-(3,3-difluorocyclobutyl)-3-[(4,4-difluorocyclohexyl)methyl]-2-isopropylimidazo[1,2-a]pyridine-7-carboxamide]	≤ 100 nM	–
CC(C)c1nc2cc(C(=O)NCC(F)(F)F)cc(C#N)n2c1CC1CCC(F)(F)CC1 [Compound 171, 5-Cyano-3-[(4,4-difluorocyclohexyl)methyl]-2-isopropyl-N-(2,2,2-trifluoroethyl)imidazo[1,2-a]pyridine-7-carboxamide]	≤ 100 nM	–
O=C(NCC(=O)N1CC(F)(F)C1)c1cc(Cl)n2c(CC3CCC(F)(F)CC3)c(C(F)(F)F)nc2c1 [Compound 172, 5-Chloro-N-[2-(3,3-difluoroazetidin-1-yl)-2-oxoethyl]-3-[(4,4-difluorocyclohexyl)methyl]-2-(trifluoromethyl)imidazo[1,2-a]pyridine-7-carboxamide]	≤ 100 nM	–
O=C(NCC1(CO)CC1)c1cc(Cl)n2c(CC3CCC(F)(F)CC3)c(C(F)(F)F)nc2c1 [Compound 174, 5-Chloro-3-[(4,4-difluorocyclohexyl)methyl]-N-{[1-(hydroxymethyl)cyclopropyl]methyl}-2-(trifluoromethyl)imidazo[1,2-a]pyridine-7-carboxamide]	≤ 100 nM	–
N#CC1(NC(=O)c2cc(Cl)n3c(CC4CCC(F)(F)CC4)c(C(F)(F)F)nc3c2)CC1 [Compound 175, 5-Chloro-N-(1-cyanocyclopropyl)-3-[(4,4-difluorocyclohexyl)methyl]-2-(trifluoromethyl)imidazo[1,2-a]pyridine-7-carboxamide]	≤ 100 nM	–
CC(C)c1nc2cc(C(=O)NCC(C)(F)F)cc(C#N)n2c1CC1CCC(F)(F)CC1 [Compound 177, 5-Cyano-3-[(4,4-difluorocyclohexyl)methyl]-N-(2,2-difluoropropyl)-2-isopropylimidazo[1,2-a]pyridine-7-carboxamide]	≤ 100 nM	–
CC(F)(F)c1nc2cc(C(=O)N[C@H]3C[C@@H]4CC[C@H]3O4)cc(C=O)n2c1CC1CCC(F)(F)CC1 [Compound 179, N-[(1R,2S,4S)-7-Oxabicyclo[2.2.1]heptan-2-yl]-3-[(4,4-difluorocyclohexyl)methyl]-2-(1,1-difluoroethyl)-5-formylimidazo[1,2-a]pyridine-7-carboxamide]	≤ 100 nM	–
C[C@H](NC(=O)c1cc(C#N)n2c(CC3CCC(F)(F)CC3)c(C(F)(F)F)nc2c1)C(=O)N(C)C [Compound 187, (S)-5-Cyano-3-[(4,4-difluorocyclohexyl)methyl]-N-[1-(dimethylamino)-1-oxopropan-2-yl]-2-(trifluoromethyl)imidazo[1,2-a]pyridine-7-carboxamide]	≤ 100 nM	–
N#Cc1cc(C(=O)NC23CCN(CC2)C3)cc2nc(C(F)(F)F)c(CC3CCC(F)(F)CC3)n12 [Compound 188, N-(1-Azabicyclo[2.2.1]heptan-4-yl)-5-cyano-3-[(4,4-difluorocyclohexyl)methyl]-2-(trifluoromethyl)imidazo[1,2-a]pyridine-7-carboxamide]	≤ 100 nM	–
[2H]C([2H])([2H])OC(C)(C)CNC(=O)c1cc(CO)n2c(CC3CCC(F)(F)CC3)c(C(C)(F)F)nc2c1 [Compound 192, 3-[(4,4-Difluorocyclohexyl)methyl]-2-(1,1-difluoroethyl)-5-(hydroxymethyl)-N-(2-methoxy-d3-2-methylpropyl)imidazo[1,2-a]pyridine-7-carboxamide]	≤ 100 nM	–
Cc1c(C(=O)NC2CCOCC2)cc2nc(C(F)(F)F)c(CC3CCC(F)(F)CC3)n2c1Cl [Compound 195, 5-Chloro-3-[(4,4-difluorocyclohexyl)methyl]-6-methyl-N-(tetrahydro-2H-pyran-4-yl)-2-(trifluoromethyl)imidazo[1,2-a]pyridine-7-carboxamide]	≤ 100 nM	–
CC(C)(C)NC(=O)c1cc(C#N)n2c(CC3CCC(F)(F)CC3)c(C(F)(F)F)nc2c1 [Compound 198, N-tert-Butyl-5-cyano-3-[(4,4-difluorocyclohexyl)methyl]-2-(trifluoromethyl)imidazo[1,2-a]pyridine-7-carboxamide]	–	≤ 100 nM
N#Cc1cc(C(=O)NC(=O)C2CC2)cc2nc(C(F)(F)F)c(CC3CCC(F)(F)CC3)n12 [Compound 202, 5-Cyano-N-(cyclopropanecarbonyl)-3-[(4,4-difluorocyclohexyl)methyl]-2-(trifluoromethyl)imidazo[1,2-a]pyridine-7-carboxamide]	≤ 100 nM	–
CC(C)(C)C(=O)NC(=O)c1cc(C#N)n2c(CC3CCC(F)(F)CC3)c(C(F)(F)F)nc2c1 [Compound 203, 5-Cyano-3-[(4,4-difluorocyclohexyl)methyl]-N-pivaloyl-2-(trifluoromethyl)imidazo[1,2-a]pyridine-7-carboxamide]	≤ 100 nM	–
CC1(C)CC(NC(=O)c2cc3nc(C(F)(F)F)c(CC4CCC(F)(F)CC4)n3c(Cl)c2Cl)CCO1 (stereo not shown) [Compound 205, 5,6-Dichloro-3-[(4,4-difluorocyclohexyl)methyl]-N-(2,2-dimethyltetrahydro-2H-pyran-4-yl)-2-(trifluoromethyl)imidazo[1,2-a]pyridine-7-carboxamide]	–	≤ 100 nM
